Data on 27 molecules can be found in EP1614683B1, “Indazole compounds and pharmaceutical compositions for inhibiting protein kinases, and methods for their use” (priority 1999, dated 2001).

Where two headings read alike, the source gives them in different places.

The target in assay [1] is T1, human CHK1 (FL-CHK1) (Homo sapiens, UniProt O14757).
T1 construct: C-terminally His-tagged full-length human CHK1 (FL-CHK1) was expressed using the baculovirus/insect cell system; made in house; host or cells: baculovirus/insect cell system
T1 sequence (O14757 1-476): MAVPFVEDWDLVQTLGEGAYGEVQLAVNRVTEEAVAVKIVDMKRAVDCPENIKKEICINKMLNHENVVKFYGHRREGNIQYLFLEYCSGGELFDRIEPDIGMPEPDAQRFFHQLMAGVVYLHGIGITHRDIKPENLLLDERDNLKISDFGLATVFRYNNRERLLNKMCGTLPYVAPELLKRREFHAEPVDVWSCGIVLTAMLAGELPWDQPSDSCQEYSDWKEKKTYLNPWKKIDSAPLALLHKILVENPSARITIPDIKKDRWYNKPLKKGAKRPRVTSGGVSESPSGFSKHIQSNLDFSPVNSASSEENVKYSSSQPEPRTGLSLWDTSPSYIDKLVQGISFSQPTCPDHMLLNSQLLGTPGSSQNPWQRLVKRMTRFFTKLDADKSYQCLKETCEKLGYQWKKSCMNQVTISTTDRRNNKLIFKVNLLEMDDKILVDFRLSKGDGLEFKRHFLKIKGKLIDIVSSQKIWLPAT
Description: CHK1 coupled spectrophotometric assay. The format is biochemical. The text has this:
CHK1 Construct for Assay: C-terminally His-tagged full-length human CHK1 (FL-CHK1) was expressed using the baculovirus/insect cell system. […] The protein was purified by conventional chromatographic techniques.
The production of ADP from ATP that accompanies phosphoryl transfer to the synthetic substrate peptide Syntide-2 ([…]) was coupled to oxidation of NADH using phosphoenolpyruvate (PEP) through the actions of pyruvate kinase (PK) and lactic dehydrogenase (LDH). The oxidation of NADH was monitored by following the decrease of absorbance at 340 nm (∈340 = 6.22 cm^-1 mM^-1) using a HP8452 spectrophotometer. […] Assays were initiated with 10 nM of FL-CHK1. Ki values were determined by measuring initial enzyme activity in the presence of varying concentrations of test compounds. The data were analyzed using Enzyme Kinetic and Kaleidagraph software.

Assay [2] has as its target T2, phosphorylated Tie-2 (aa 775-1122) (Homo sapiens, UniProt Q02763).
T2 construct: 4 to 12 nM phosphorylated Tie-2 (aa 775-1122); made in house; host or cells: insect cells
Description: TIE-2 spectrophotometric assay. The format is biochemical. The note with it: for inhibition at 10 µM: read-out: % Inhibition Tie2-P, compound tested at 10 µM; for inhibition at 1 µM: read-out: % Inhibition @ 1 µM Tie2-P. How it is done:
This construct also carries a R774M mutation, which serves as the initiating methionine residue in translation.
The kinase-catalyzed production of ADP from ATP that accompanies phosphoryl transfer to the random copolymer poly(Glu4 Tyr) was coupled to the oxidation of NADH through the activities of pyruvate kinase (PK) and lactate dehydrogenase (LDH). NADH conversion to NAD* was monitored by the decrease in absorbance at 340 nm (ε = 6.22 cm^-1mM^-1) using a Beckman DU650 spectrophotometer. Typical reaction solutions contained 1 mM phosphoenolpyruvate, 0.24 mM NADH, 40 mM MgCl2, 5 mM DTT, 2.9 mg/mL poly(Glu4Tyr), 0.5 mM ATP, 15 units/mL PK, 15 units/mL LDH in 100 mM HEPES, pH 7.5. […]

Assay [3] concerns human umbilical vein endothelial cells (HUVEC). Description: HUVEC proliferation assay (VEGF-stimulated, MTT). The format is cell-based. The note with it: Homo sapiens, HUVEC, Table 1; read-out: HUVEC IC50.
The target in assay [4] is LCK tyrosine kinase (Homo sapiens, UniProt P06239, C224D/P223M). Description: LCK spectrophotometric assay. The format is biochemical. The note with it: read-out: Lck* (% inhibition). How it is done:
The spectrophotometric assay was carried out as described above for VEGF-R2, except for the following changes in concentration: LCK = 60 nM, MgCl2 = 0 mM, poly(E4Y1) = 20 mM.

In assay [5] the target is human FGF-R1 (Homo sapiens, UniProt P11362, C488A/C584S/L457V). Description: FGF-R spectrophotometric assay. The assay is classed as biochemical. Conditions: read-out: FGF* (% inhibition). The method, then: The spectrophotometric assay was carried out as described above for VEGF-R2, except for the following changes in concentration: FGF-R = 50 nM, ATP = 2 mM, and poly(E4Y1) =15 mM.

Setting [6] is: read-out: CHK-1* (% inhibition @ 50 µM).
[7] abbreviates: Table 5, 1 µM, bold values spectrophotometric assay, non-bolded DELFIA assay (bold not visible here).

human FGF-R1, sequence (P11362 456-766 L457V/C488A/C584S): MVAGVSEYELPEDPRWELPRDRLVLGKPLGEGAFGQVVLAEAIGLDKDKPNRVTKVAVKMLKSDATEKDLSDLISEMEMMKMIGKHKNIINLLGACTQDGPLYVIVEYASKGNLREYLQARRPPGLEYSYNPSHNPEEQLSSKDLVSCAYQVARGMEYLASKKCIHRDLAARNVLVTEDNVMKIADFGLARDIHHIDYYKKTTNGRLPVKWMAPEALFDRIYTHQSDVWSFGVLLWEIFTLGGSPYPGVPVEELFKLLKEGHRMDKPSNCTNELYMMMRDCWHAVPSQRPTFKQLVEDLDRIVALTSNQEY
LCK tyrosine kinase, sequence (P06239 223-509 P223M/C224D): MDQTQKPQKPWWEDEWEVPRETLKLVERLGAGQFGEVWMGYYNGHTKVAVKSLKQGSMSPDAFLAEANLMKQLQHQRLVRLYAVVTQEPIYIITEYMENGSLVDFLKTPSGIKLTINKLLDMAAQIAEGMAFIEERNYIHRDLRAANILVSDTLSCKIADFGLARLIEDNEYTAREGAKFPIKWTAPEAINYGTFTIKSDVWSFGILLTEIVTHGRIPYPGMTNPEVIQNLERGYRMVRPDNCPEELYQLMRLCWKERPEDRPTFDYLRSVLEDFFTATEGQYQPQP
T2 sequence (Q02763 775-1122): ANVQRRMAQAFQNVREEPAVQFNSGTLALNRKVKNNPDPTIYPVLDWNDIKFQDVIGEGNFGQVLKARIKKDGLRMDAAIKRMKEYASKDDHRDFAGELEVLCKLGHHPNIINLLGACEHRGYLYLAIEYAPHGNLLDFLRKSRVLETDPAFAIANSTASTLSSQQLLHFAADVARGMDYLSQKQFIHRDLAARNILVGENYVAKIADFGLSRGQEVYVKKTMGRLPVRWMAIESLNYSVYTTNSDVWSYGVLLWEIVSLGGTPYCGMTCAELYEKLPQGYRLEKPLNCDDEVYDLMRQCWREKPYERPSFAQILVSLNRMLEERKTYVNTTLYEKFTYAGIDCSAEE

Turning to “3-(1H-benzoimidazol-2-yl)-N-(4-hydroxy-3-methylphenyl)-1H-indazole-6-carboxamide [Example 53(c)]”, in assay [1] (Table 3; read-out: CHK-1* (Ki)), the inhibitory constant (Ki) (usually a measure of affinity in units of concentration, obtained from inhibition or displacement) was 1100 nM.

For the molecule `Oc1ccc(-c2ccc3c(-c4cc5ccccc5o4)n[nH]c3c2)cc1OCc1ccccc1` [2(e), 3-(Benzofuran-2-yl)-6-(3-benzyloxy-4-hydroxy-phenyl)-1H-indazole], the inhibition (in general, how much of the control response was suppressed) at 20 µM in assay [1] (read-out: CHK -1* (% inhibition @ 20 µM)) was determined as 5%. On to `COCOc1ccc(Oc2ccc3c(/C=C/c4ccccc4)n[nH]c3c2)cc1` [8(b), 3-(E-styryl)-6-[4-(methoxymethoxy)phenoxy]-1H-indazole], for which, in assay [1] (setting [6]), the inhibition at 50 µM is 12%. For `Oc1ccc(Oc2ccc3c(/C=C/c4ccccc4)n[nH]c3c2)cc1` [9(b), 3-(E-styryl)-6-[4-hydroxyphenoxy]-1H-indazole], in assay [2], the inhibition at 10 µM came out at 88%. `CN(c1cccc(NC(=O)OCc2ccccc2)c1)c1ccc2c(/C=C/c3ccccc3)n[nH]c2c1` [12(c), {3-[Methyl-(3-styryl-1H-indazol-6-yl)-amino]-phenyl}-carbamic acid benzyl ester]: the inhibition at 1 µM in assay [2] (setting [7]) is 17%. Turning to `C=C(c1cccc(NC(=O)c2ncc(C)s2)c1)c1ccc2c(/C=C/c3ccccc3)n[nH]c2c1` [22(a), 6-(1-(3-(5-Methyl-thiaxole-2-carboxoylamido)phenyl)-vinyl)-3-styryl-1H-indazole], the IC50 (usually the concentration at which inhibition is half-maximal) in assay [3] stood at 12 nM. In assay [2] (setting [7]), the inhibition at 1 µM was 8%. Take `COc1cc(-c2ccc3c(-c4nc5ccccc5[nH]4)n[nH]c3c2)c(C)cc1O` [24(a), 4-[3-(1-H-Benzoimidazol-2-yl)-1-H-indazol-6-yl]-2-methoxy-5-methyl-phenol]: the inhibition at 1 µM in assay [4] was determined as 67%; in assay [5], 72%. The inhibition at 10 µM in assay [2] was determined as 91%.

Consider `Cc1cc(O)ccc1-c1ccc2c(-c3nc4ccccc4[nH]3)n[nH]c2c1` [24(b), 4-[3-(1-H-Benzoimidazol-2-yl)-1-H-indazol-6-yl]-3-methylphenol], for which the inhibition at 1 µM in assay [4] was determined as 96%; in assay [5] it was 88%. Also, the inhibition at 10 µM in assay [2] turned out to be 92%.

On to `C=C(c1ccccc1)c1ccc2c(/C=C/c3ccccc3)n[nH]c2c1` [Example 10, 6-(1-Phenyl-vinyl)-3-styryl-1H-indazole], for which the IC50 in assay [3] is greater than 700 nM. For the same molecule, the inhibition at 10 µM in assay [2] is 20%. Turning to `CN(c1cccc(N)c1)c1ccc2c(/C=C/c3ccccc3)n[nH]c2c1` [Example 11, N-Methyl-N-(3-styryl-1H-indazol-6-yl)-benzene-1,3-diamine], the inhibition at 1 µM in assay [2] (setting [7]) came to 40%. As to `CN(c1ccccc1)c1ccc2c(/C=C/c3ccccc3)n[nH]c2c1` [Example 14, Methyl-phenyl-(3-styryl-1H-indazol-6-yl)-amine], the inhibition at 25 µM in assay [1] (read-out: CHK -1* (% inhibition @ 25 µM)) was 12%. On to `O=C(c1ccccc1)c1ccc2c(/C=C/c3ccccc3)n[nH]c2c1` [Example 17, Phenyl-(3-styryl-1H-indazol-6-yl)-methanone], for which the inhibition at 1 µM in assay [2] amounted to 50%. With `C=C(c1cccc(N)c1)c1ccc2c(/C=C/c3ccccc3)n[nH]c2c1` [Example 21, 6-(1-(3-Aminophenyl)-vinyl)-3-styryl-1H-indazole], in assay [3], the half-maximal inhibitory concentration (IC50) was greater than 700 nM. Further, the inhibition at 1 µM in assay [2] (setting [7]) was 27%. As for `Cc1c(O)ccc(NC(=O)c2ccc3c(-c4nc5ccccc5[nH]4)n[nH]c3c2)c1C` [Example 53(d), 3-(1H-benzoimidazol-2-yl)-N-(4-hydroxy-2,3-dimethylphenyl)-1H-indazole-6-carboxamide], the “CHK-1* (inhibition @ 100 µM)” value in assay [1] (Table 3; @ 100 µM; NI = no significant inhibition) is reported as “Nl @ 100 µM”. For the molecule `CSc1cc(O)ccc1-c1ccc2c(-c3nc4ccccc4[nH]3)n[nH]c2c1` [Reference Example 24(k), 3-1H-Benzoimidazol-2-yl-6.(2-methylsulfanyl-4-hydroxyphenyl}-1H-indazole], the inhibition at 1 µM in assay [1] (read-out: CHK1* (% inhibition)) came to 81%; in assay [4], 89%. Regarding `COc1cc(O)ccc1-c1ccc2c(-c3nc4ccncc4[nH]3)n[nH]c2c1` [Reference Example 25(a), 3-(3H-Imidazo[4,5-c]pyridin-2-yl)-6-(4-hydroxy-2-methoxyphenyl)-1H-indazole], the inhibition at 1 µM in assay [1] (read-out: CHK1* (% inhibition)) was 49%; in assay [4], 44%; in assay [5], 62%.

On to `COc1cc(O)ccc1-c1ccc2c(-c3nc4ccc(C(=O)NCCN5CCOCC5)cc4[nH]3)n[nH]c2c1` [Reference Example 25(b), 3-[6-(2-morpholin-4-yl-ethylcarbamoyl)-1H-benzoimidazol-2-yl]-6-(2-methoxy-4-hydroxyphenyl)-1H-indazole], for which the inhibition at 1 µM in assay [1] (read-out: CHK1* (% inhibition)) turned out to be 83%; in assay [4], 87%; in assay [5], 87%.

For `COc1cc(O)ccc1-c1ccc2c(-c3nc4ccc(N5CCN(C)CC5)cc4[nH]3)n[nH]c2c1` [Reference Example 25(c), 3-[6-(4-methylpiperazin-1-yl)-1H-benzoimidazol-2-yl]-6-(2-methoxy-4-hydroxyphenyl)-1H-indazole], the inhibition at 1 µM in assay [1] (read-out: CHK1* (% inhibition)) is 90%; in assay [5], 96%.

`COc1cc(O)ccc1-c1ccc2c(-c3nc4c(N5CCN(C)CC5)cccc4[nH]3)n[nH]c2c1` [Reference Example 25(d)]: the values for the inhibition at 1 µM in assay [1] (read-out: CHK1* (% inhibition)), in assay [4] and in assay [5] were 87%, 60% and 80%, respectively. The like results for `COc1cc(O)ccc1-c1ccc2c(-c3ncc[nH]3)n[nH]c2c1` [Reference Example 25(e), 3-imidazol-2-yl-6-(2-methoxy-4-hydroxyphenyl)-1H-indazole] were, in that order, 16%, 13% and 26%.

As for `COc1cc(O)ccc1-c1ccc2c(-c3nc4cc(N(C)C)ccc4[nH]3)n[nH]c2c1` [Reference Example 25(h), 3-(5-Dimethylamino-1H-benzoimidazol-2-yl)-6-(2-methoxy-4-hydroxy-phenyl)-1H-indazole], the results for the inhibition at 1 µM in assay [1] (read-out: CHK1* (% inhibition)), in assay [4] and in assay [5] were 86%, 87% and 91%, respectively. `COc1cccc(-c2ccc3c(/C=C/c4ccccc4)n[nH]c3c2)c1` [Reference Example 27(b)]: the inhibition at 50 µM in assay [1] (setting [6]) was determined as 28%. In the case of `COc1ccc(-c2ccc3c(/C=C/c4ccccc4)n[nH]c3c2)cc1` [Reference Example 27(c)], in assay [1] (read-out: CHK-1* (% inhibition @ 5 µM)), the inhibition at 5 µM amounted to 11%. Regarding `C(=C\c1n[nH]c2cc(-c3cccc4ccccc34)ccc12)/c1ccccc1` [Reference Example 27(d)], in assay [1] (read-out: CHK-1* (% inhibition @ 10 µM)), the inhibition at 10 µM worked out at 14%. `COc1ccc(-c2ccc3c(/C=C/c4ccccc4)n[nH]c3c2)cc1OC` [Reference Example 27(j)]: the inhibition at 50 µM in assay [1] (setting [6]) was 15%. In the case of `Clc1cccc(Cl)c1/C=C/c1n[nH]c2cc(-c3ccncc3)ccc12` [Reference Example 29(a), 6-pyrid-4-yl-3-E-[2-(2,6-dichlorophenyl)ethenyl]-1H-indazole], the “CHK-1* (inhibition @ 25 µM)” value in assay [1] (Table 3; @ 25µM; NI = no significant inhibition) is given as “Nl @ 25µM”.

Consider `Fc1ccc(F)c(/C=C/c2n[nH]c3cc(-c4ccncc4)ccc23)c1` [Reference Example 29(s), 6-pyrid-4-yl-3-E-[2-(2,5-difluorophenyl)ethenyl]-1H-indazole], for which, in assay [1] (read-out: CHK-1* (Ki); Table 3), the inhibition constant (Ki) came to 11000 nM.
